Assay results as given in PMC5077133, “Towards Development of Small Molecule Lipid II Inhibitors as Novel Antibiotics” (PLoS ONE, 2016).

Experiments:
P. aeruginosa X13273 = assay: Antibacterial activity (MIC, broth dilution); assay type: cell-based; settings: CLSI, in µg/mL
Procedure: (§1) Determination of the Minimal Inhibitory Concentrations (MIC) by dilution was carried out by broth dilution according to CLSI standards.

E. aerogenes ATCC 13048 = assay: Antibacterial activity (MIC, broth dilution); assay type: cell-based; settings: CLSI
Procedure: as §1

S. aureus MRSA 1094 = assay: Antibacterial activity (MIC, broth dilution); assay type: cell-based; settings: CLSI
Procedure: as §1

E. cloacae ATCC 13047 = assay: Antibacterial activity (MIC, broth dilution); assay type: cell-based; settings: CLSI
Procedure: as §1

[1] = test system: S. aureus HFH-30123 (MRSA); assay: Antibacterial activity (MIC, broth dilution); assay type: cell-based; settings: CLSI
Procedure: as §1

P. aeruginosa ATCC 27853 = assay: Antibacterial activity (MIC, broth dilution); assay type: cell-based; settings: CLSI
Procedure: as §1

[2] = test system: K. pneumoniae NR-15410 (KPC); assay: Antibacterial activity (MIC, broth dilution); assay type: cell-based; settings: CLSI
Procedure: as §1

[3] = test system: K. pneumoniae NR-15411 (KPC); assay: Antibacterial activity (MIC, broth dilution); assay type: cell-based; settings: CLSI
Procedure: as §1

E. faecium F118 (VRE) = assay: Antibacterial activity (MIC, broth dilution); assay type: cell-based; settings: CLSI, in µg/mL
Procedure: as §1

P. aeruginosa PA01 = assay: Antibacterial activity (MIC, broth dilution); assay type: cell-based; settings: CLSI
Procedure: as §1

E. faecium EF1509 (VRE) = assay: Antibacterial activity (MIC, broth dilution); assay type: cell-based; settings: CLSI, in µg/mL
Procedure: as §1

HeLa cells = assay: Cytotoxicity against mammalian cells (MTS assay); assay type: cell-based
Procedure: The cytotoxicity concentration of antibacterial compounds that produces half maximal decrease in viability (CC50) against mammalian cells (HeLa, ATCC CCL-2.2) was determined as described. The effect of compounds on HeLa cell viability was assessed in triplicate by measuring the mitochondrial activity using MTS assays according to the manufacturer’s instructions (Cell Titer 96 proliferation assay, Promega). The cells were incubated for 72 hours in RPMI1640 medium containing the compounds at final concentrations ranging from 64 to 0.125 μg/ml. CC50 was determined using a standard curve of serially diluted untreated cells in each experiment.

A. baumanii ATCC 19606 = assay: Antibacterial activity (MIC, broth dilution); assay type: cell-based, Acinetobacter baumanii; settings: CLSI, in µg/mL
From the text: Staphylococcus aureus ATCC 29213, Escherichia coli ATCC 25922, Enterococcus faecalis ATCC 29212, Streptococcus pneumonia ATCC 49619 and Acinetobacter baumanii ATCC 19606 were obtained from Microbiologics (St. Cloud, MN). E. faecalis ATCC 51575, ATCC 51299 and REMEL C99707 and E. faecium ATCC 51559 (MDR), REMEL IH79985 and REMEL C110914 were generously provided by the Laboratory of Pathology, University of Maryland Baltimore School of Medicine. Unless stated otherwise, chemicals and reagents were purchased from Sigma.
as §1

[4] = Lipid II binding by Surface Plasmon Resonance; settings: SPR, immobilized 3-Lipid II, 25°C
Procedure: Short-chain water-soluble Lipid II containing a lipid tail of three isoprene units was generated and purified essentially as described. Typically, M. flavus vesicles (120 μmol lipid-Pi) were incubated together with 500 μmol UDP-GlcNAc, 500 μmol UDP-MurNAC-pentapeptide and 400 μmol farnesyl phosphate in 100 mM Tris-HCl pH 8.0, 5 mM MgCl2. The incubation lasted two hours at room temperature for 3-P. The synthesis of 3-Lipid II was followed using RP-8 reversed phase TLC (Merck) developed in 75% methanol. For purification, the membranes were removed by centrifugation at 40,000 x g and the supernatant was collected and loaded on a C18 HPLC column and eluted with a linear gradient from 50 mM ammonium bicarbonate to 100% methanol in 30 minutes. Farnesyl-Lipid II (3-Lipid II) eluted at approximately 60% methanol. Its identity was confirmed by mass spectroscopy. Surface Plasmon Resonance binding experiments were carried out on a BIAcore T100 system (BIAcore Inc., Piscataway, NY) at 25°C. The assay buffer was 10 mM HEPES, 150 mM NaCl, 0.05% surfactant P20, pH 7.4 (± 3 mM EDTA) supplemented with 10% DMSO. 3-Lipid II (50 RUs) was immobilized on CM5 sensor chips using the amine-coupling chemistry recommended by the manufacturer. For initial determination of binding, compounds were introduced into the flow-cells (30 μl/min) in the running buffer at 10 μM. Resonance signals were corrected for nonspecific binding by subtracting the background of the control flow-cell. After each analysis, the sensor chip surfaces were regenerated with 50 mM NaOH for 30 s at a flow rate 100 μl/min, and equilibrated with the buffer prior to next injection. For binding kinetics studies, binding isotherms were analyzed with manufacturer-supplied software for BIAcore T100.

SMILES	Antibacterial activity (MIC) P. aeruginosa X13273 (P. aeruginosa X13273)	Antibacterial activity (MIC) E. aerogenes ATCC 13048 (E. aerogenes ATCC 13048)	Antibacterial activity (MIC) S. aureus MRSA 1094 (S. aureus MRSA 1094)	Antibacterial activity (MIC) E. cloacae ATCC 13047 (E. cloacae ATCC 13047)	Antibacterial activity (MIC) S. aureus HFH-30123 (MRSA) [1]	Antibacterial activity (MIC) P. aeruginosa ATCC 27853 (P. aeruginosa ATCC 27853)	Antibacterial activity (MIC) K. pneumoniae NR-15410 (KPC) [2]	Antibacterial activity (MIC) K. pneumoniae NR-15411 (KPC) [3]	Antibacterial activity (MIC) E. faecium F118 (VRE) (E. faecium F118 (VRE))	Antibacterial activity (MIC) P. aeruginosa PA01 (P. aeruginosa PA01)	Antibacterial activity (MIC) E. faecium EF1509 (VRE) (E. faecium EF1509 (VRE))	CC50% (72 h HeLa cells) (HeLa cells)	Antibacterial activity (MIC) A. baumanii ATCC 19606 (A. baumanii ATCC 19606)	Kd [4]
CCc1ccc(-c2cc(/C=C/c3cn(C)c4ccccc34)[o+]c(-c3ccc(CC)cc3)c2)cc1.F[B-](F)(F)F [6jc66-2]	>=64	≥ 64 µg/mL	4 µg/mL	≥ 64 µg/mL	4 µg/mL	≥ 64 µg/mL	64 µg/mL	≥ 64 µg/mL	5.66	≥ 64 µg/mL	4	1.42	64	1600 ± 200 nM
CN(C)c1ccc(/C=C/C=C/c2cc(-c3ccccc3)cc(-c3ccccc3)[o+]2)cc1.F[B-](F)(F)F [6jc43-1]	>=64	≥ 64 µg/mL	4 µg/mL	≥ 64 µg/mL	4 µg/mL	≥ 64 µg/mL	≥ 64 µg/mL	≥ 64 µg/mL	4	≥ 64 µg/mL	4	0.93	45.25	62000 ± 6000 nM
CN(C)c1ccc(/C=C/C=C/c2cc(-c3ccc(Br)cc3)cc(-c3ccc(Br)cc3)[o+]2)cc1.F[B-](F)(F)F [6jc48-2]	>=64	≥ 64 µg/mL	≥ 64 µg/mL	≥ 64 µg/mL	≥ 64 µg/mL	≥ 64 µg/mL	≥ 64 µg/mL	≥ 64 µg/mL	16	≥ 64 µg/mL	4	60.51	>=64	1140 ± 300 nM
Cc1ccc(-c2cc(/C=C/c3cc4c5c(c3)CCCN5CCC4)[o+]c(-c3ccc(C)cc3)c2)cc1.F[B-](F)(F)F [6jc65-1]	64	32 µg/mL	2.83 µg/mL	64 µg/mL	2 µg/mL	64 µg/mL	64 µg/mL	≥ 64 µg/mL	4	64 µg/mL	2	<.78125	11.31	2170 ± 200 nM
